Patent US9701670B2, “Pyrazolyl-ureas as kinase inhibitors” (RESPIVERT LIMITED, priority 2013, dated 2017)

Tests used:
[1] = system: Differentiated U937 cells; assay: (l) Cell viability: MTT assay; type: cell-based, human; settings: 1 μg/mL
Experimental: Differentiated U937 cells are pre-incubated with each test compound (final concentration 1 μg/mL or 10 μg/mL in 200 μL media indicated below) under two protocols: the first for 4 hr in 5% FCS RPMI1640 media and the second in 10% FCS RPMI1640 media for 24 h. The supernatant is replaced with new media (200 μL) and MTT stock solution (10 μL, 5 mg/mL) is added to each well. After incubation for 1 hr the media are removed, DMSO (200 μL) is added to each well and the plates are shaken lightly for 1 hr prior to reading the absorbance at 550 nm. The percentage loss of cell viability is calculated for each well relative to vehicle (0.5% DMSO) treatment. Consequently an apparent increase in cell viability for drug treatment relative to vehicle is tabulated as a negative percentage.

[2] = target: p38 MAPKα isoform (MAPK14) (Homo sapiens (Human), UniProt Q16539); assay: p38 MAPKα enzyme inhibition (FRET, Z-LYTE), Method 1; type: biochemical; settings: Method 1 (Table 4a1)
Sequence of p38 MAPKα isoform (MAPK14) (Q16539 whole entry, canonical isoform): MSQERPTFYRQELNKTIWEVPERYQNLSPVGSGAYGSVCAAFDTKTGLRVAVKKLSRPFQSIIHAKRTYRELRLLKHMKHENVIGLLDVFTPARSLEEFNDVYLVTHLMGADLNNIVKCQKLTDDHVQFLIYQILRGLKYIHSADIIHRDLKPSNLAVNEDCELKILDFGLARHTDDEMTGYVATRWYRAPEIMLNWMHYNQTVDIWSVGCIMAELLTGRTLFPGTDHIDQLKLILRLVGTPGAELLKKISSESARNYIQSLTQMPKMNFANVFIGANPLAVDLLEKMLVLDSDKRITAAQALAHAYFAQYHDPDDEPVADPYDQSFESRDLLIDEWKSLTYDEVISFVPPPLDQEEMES
Experimental: The enzyme inhibitory activities of compounds disclosed herein are determined by FRET using synthetic peptides labelled with both donor and acceptor fluorophores (Z-LYTE, Invitrogen Ltd., Paisley, UK).
The inhibitory activities of test compounds against the p38 MAPKα isoform (MAPK14: Invitrogen), are evaluated indirectly by determining the level of activation/phosphorylation of the down-stream molecule, MAPKAP-K2. The p38 MAPKα protein (80 ng/mL, 2.5 μL) is mixed with the test compound (2.5 μL of either 4 μg/mL, 0.4 μg/mL, 0.04 μg/mL or 0.004 μg/mL) for 2 hr at RT. […] The mixture is incubated for 1 hr at RT. Development reagent (protease, 5 μL) is added for 1 hr prior to detection in a fluorescence microplate reader (Varioskan® Flash, ThermoFisher Scientific).
In all cases, the site-specific protease cleaves non-phosphorylated peptide only and eliminates the FRET signal. Phosphorylation levels of each reaction are calculated using the ratio of coumarin emission (donor) over fluorescein emission (acceptor), for which high ratios indicate high phosphorylation and low ratios indicate low phosphorylation levels.

Compound | IC50 [2] [nM] | Cell viability at time point in d-U937 cells 4 h [1] | Cell viability at time point in d-U937 cells 24 h [1]
Cc1csc(-n2nc(C(C)(C)C)cc2NC(=O)Nc2ccc(Oc3ccnc(Nc4cccc(C(=O)NCCN5CCOCC5)c4)n3)c3ccccc23)c1 [Example 24, 3-((4-((4-(3-(3-(tert-butyl)-1-(4-methylthiophen-2-yl)-1H-pyrazol-5-yl)ureido)naphthalen-1-yl)oxy)pyrimidin-2-yl)amino)-N-(2-morpholinoethyl)benzamide] | 11 | −ve (−ve and +ve indicate that the value is below and above respectively, the no significant effect threshold, defined as 30% inhibition at 1 μg/mL at the time point indicated.) | −ve (−ve and +ve indicate that the value is below and above respectively, the no significant effect threshold, defined as 30% inhibition at 1 μg/mL at the time point indicated.)
Cc1ccc(-n2nc(C(C)(C)C)cc2NC(=O)Nc2ccc(Oc3ccnc(Nc4cccc(C(=O)N(C)C)c4)n3)c3ccccc23)cc1 [Example 26, 3-((4-((4-(3-(3-(tert-butyl)-1-(p-tolyl)-1H-pyrazol-5-yl)ureido)naphthalen-1-yl)oxy)pyrimidin-2-yl)amino)-N,N-dimethylbenzamide] | 12 | −ve (−ve and +ve indicate that the value is below and above respectively, the no significant effect threshold, defined as 30% inhibition at 1 μg/mL at the time point indicated.) | −ve (−ve and +ve indicate that the value is below and above respectively, the no significant effect threshold, defined as 30% inhibition at 1 μg/mL at the time point indicated.)
COc1ccc(C(=O)NCCN2CCOCC2)cc1Nc1nccc(Oc2ccc(NC(=O)Nc3cc(C(C)C)nn3-c3ccc(C)cc3)c3ccccc23)n1 [Example 30, 3-((4-((4-(3-(3-isopropyl-1-(p-tolyl)-1H-pyrazol-5-yl)ureido)naphthalen-1-yl)oxy)pyrimidin-2-yl)amino)-4-methoxy-N-(2-morpholinoethyl)benzamide] | 3 | −ve (−ve and +ve indicate that the value is below and above respectively, the no significant effect threshold, defined as 30% inhibition at 1 μg/mL at the time point indicated.) | −ve (−ve and +ve indicate that the value is below and above respectively, the no significant effect threshold, defined as 30% inhibition at 1 μg/mL at the time point indicated.)
COc1ccc(C(=O)NCCN2CCOCC2)cc1Nc1nccc(Oc2ccc(NC(=O)Nc3cc(C(C)(C)C)nn3-c3ccc(C)cc3)c3ccccc23)n1 [Example 31, 3-((4-((4-(3-(3-(tert-butyl)-1-(p-tolyl)-1H-pyrazol-5-yl)ureido)naphthalen-1-yl)oxy)pyrimidin-2-yl)amino)-4-methoxy-N-(2-morpholinoethyl)benzamide] | 8 | −ve (−ve and +ve indicate that the value is below and above respectively, the no significant effect threshold, defined as 30% inhibition at 1 μg/mL at the time point indicated.) | −ve (−ve and +ve indicate that the value is below and above respectively, the no significant effect threshold, defined as 30% inhibition at 1 μg/mL at the time point indicated.)
COc1ccc(C(=O)NCCO)cc1Nc1nccc(Oc2ccc(NC(=O)Nc3cc(C(C)C)nn3-c3ccc(C)cc3)c3ccccc23)n1 [Example 32, N-(2-hydroxyethyl)-3-((4-((4-(3-(3-isopropyl-1-(p-tolyl)-1H-pyrazol-5-yl)ureido)naphthalen-1-yl)oxy)pyrimidin-2-yl)amino)-4-methoxybenzamide] | 1 | −ve (−ve and +ve indicate that the value is below and above respectively, the no significant effect threshold, defined as 30% inhibition at 1 μg/mL at the time point indicated.) | −ve (−ve and +ve indicate that the value is below and above respectively, the no significant effect threshold, defined as 30% inhibition at 1 μg/mL at the time point indicated.)

The next lines start with results.

IC50 [2] [nM] | Compound | Cell viability at time point in d-U937 cells 4 h [1] | Cell viability at time point in d-U937 cells 24 h [1]
< 1 | Cc1ccc(-n2nc(C3(C)COC3)cc2NC(=O)Nc2ccc(Oc3ccnc(Nc4cccc(C(=O)NCCN5CCOCC5)c4)n3)c3ccccc23)cc1 [Example 22, 3-((4-((4-(3-(3-(3-methyloxetan-3-yl)-1-(p-tolyl)-1H-pyrazol-5-yl)ureido)naphthalen-1-yl)oxy)pyrimidin-2-yl)amino)-N-(2-morpholinoethyl)benzamide] | −ve (−ve and +ve indicate that the value is below and above respectively, the no significant effect threshold, defined as 30% inhibition at 1 μg/mL at the time point indicated.) | −ve (−ve and +ve indicate that the value is below and above respectively, the no significant effect threshold, defined as 30% inhibition at 1 μg/mL at the time point indicated.)
< 1 | COc1ccc(-n2nc(C3(C)COC3)cc2NC(=O)Nc2ccc(Oc3ccnc(Nc4cccc(C(=O)NCCN5CCOCC5)c4)n3)c3ccccc23)cc1 [Example 23, 3-((4-((4-(3-(1-(4-methoxyphenyl)-3-(3-methyloxetan-3-yl)-1H-pyrazol-5-yl)ureido)naphthalen-1-yl)oxy)pyrimidin-2-yl)amino)-N-(2-morpholinoethyl)benzamide] | −ve (−ve and +ve indicate that the value is below and above respectively, the no significant effect threshold, defined as 30% inhibition at 1 μg/mL at the time point indicated.) | −ve (−ve and +ve indicate that the value is below and above respectively, the no significant effect threshold, defined as 30% inhibition at 1 μg/mL at the time point indicated.)
13 | Cc1ccc(-n2nc(C(C)(C)C)cc2NC(=O)Nc2ccc(Oc3ccnc(Nc4cccc(C(=O)NCCN5CCN(C)CC5)c4)n3)c3ccccc23)cc1 [Example 25, 3-((4-((4-(3-(3-(tert-butyl)-1-(p-tolyl)-1H-pyrazol-5-yl)ureido)naphthalen-1-yl)oxy)pyrimidin-2-yl)amino)-N-(2-(4-methylpiperazin-1-yl)ethyl)benzamide] | −ve (−ve and +ve indicate that the value is below and above respectively, the no significant effect threshold, defined as 30% inhibition at 1 μg/mL at the time point indicated.) | −ve (−ve and +ve indicate that the value is below and above respectively, the no significant effect threshold, defined as 30% inhibition at 1 μg/mL at the time point indicated.)
17 | Cc1ccc(-n2nc(C(C)(C)C)cc2NC(=O)Nc2ccc(Oc3ccnc(Nc4cccc(C(=O)N5CCOCC5)c4)n3)c3ccccc23)cc1 [Example 27, 1-(3-(tert-butyl)-1-(p-tolyl)-1H-pyrazol-5-yl)-3-(4-((2-((3-(morpholine-4-carbonyl)phenyl)amino)pyrimidin-4-yl)oxy)naphthalen-1-yl)urea] | −ve (−ve and +ve indicate that the value is below and above respectively, the no significant effect threshold, defined as 30% inhibition at 1 μg/mL at the time point indicated.) | −ve (−ve and +ve indicate that the value is below and above respectively, the no significant effect threshold, defined as 30% inhibition at 1 μg/mL at the time point indicated.)
< 1 | COc1ccc(C(=O)NCCN(C)C)cc1Nc1nccc(Oc2ccc(NC(=O)Nc3cc(C(C)C)nn3-c3ccc(C)cc3)c3ccccc23)n1 [Example 28, N-(2-(dimethylamino)ethyl)-3-((4-((4-(3-(3-isopropyl-1-(p-tolyl)-1H-pyrazol-5-yl)ureido)naphthalen-1-yl)oxy)pyrimidin-2-yl)amino)-4-methoxybenzamide] | −ve (−ve and +ve indicate that the value is below and above respectively, the no significant effect threshold, defined as 30% inhibition at 1 μg/mL at the time point indicated.) | −ve (−ve and +ve indicate that the value is below and above respectively, the no significant effect threshold, defined as 30% inhibition at 1 μg/mL at the time point indicated.)
4 | COc1ccc(C(=O)NCCO)cc1Nc1nccc(Oc2ccc(NC(=O)Nc3cc(C(C)(C)C)nn3-c3ccc(C)cc3)c3ccccc23)n1 [Example 33, 3-((4-((4-(3-(3-(tert-butyl)-1-(p-tolyl)-1H-pyrazol-5-yl)ureido)naphthalen-1-yl)oxy)pyrimidin-2-yl)amino)-N-(2-hydroxyethyl)-4-methoxybenzamide] | −ve (−ve and +ve indicate that the value is below and above respectively, the no significant effect threshold, defined as 30% inhibition at 1 μg/mL at the time point indicated.) | −ve (−ve and +ve indicate that the value is below and above respectively, the no significant effect threshold, defined as 30% inhibition at 1 μg/mL at the time point indicated.)
